In US5997871A (priority 1996, dated 1999):

B1: pure β-chain: pure β-chain of hCG (protein, UniProt P0DN86 21-165, looked up)
Choriogonadotropin subunit …: SKEPLRPRCRPINATLAVEKEGCPVCITVNTTICAGYCPTMTRVLQGVLPALPQVVCNYRDVRFESIRLPGCPRGVNPVVSYAVALSCQCALCRRSTTDCGGPKDHPLTCDDPRFQDSSSSKAPPPSLPSPSRLPGPSDTPILPQ
B2: recombinant β-hCG (purified): purified recombinant β-hCG (protein, UniProt P0DN86 21-165, looked up)
Choriogonadotropin subunit …: B1 Choriogonadotropin subunit …
B3: partially purified β-hCG: native partially purified whole β-chain of hCG (protein, UniProt P0DN86 21-165, looked up)
Choriogonadotropin subunit …: B1 Choriogonadotropin subunit …

Assays:
KS Y-1 or KS-SLK cells = assay: KS clonogenic assay in methylcellulose; type: cell-based, human
Method: Briefly, the KS Y-1 cells were obtained from mononuclear cells isolated from pleural effusion of an AIDS patient with KS involving the lungs. After the depletion of T lymphocytes, monocytes/macrophages and fibroblasts by the cytotoxicity method, using monoclonal antibodies against CD2, CD3, CD4, CD8, CD10 and CD14 membrane antigens and baby rabbit complement, the cells were cultured in the absence of exogenous growth factors to select for transformed cells.

KS Y-1 induced tumors = assay: KS Y-1 tumors induced in immunodeficient mice; settings: compared to β-hCG peptides 45-57 and 109-119
HIV = HIV assays (anti-viral effects)
KS tumors and cells = assay: Overall anti-KS activity of hCG preparations and peptides in vitro and in vivo; settings: for anti-KS effects: in vitro and in vivo animal model data

Molecule	inhibition in clonogenic assays (KS Y-1 or KS-SLK cells)	anti-KS activity of other peptides (KS Y-1 induced tumors)	further results
α-hCG peptide 88-92: α-hCG peptide of amino acids 88-92 (YYHKS; UniProt P01215 112-116, looked up, fragment)	little or no inhibition	inactive	–
β-hCG peptide 6-40: β-hCG peptide 6-40, forms part of the β-core (RPRCRPINATLAVEKEGCPVCITVNTTICAGYCPT; UniProt P0DN86 26-60, looked up, fragment)	–	slight activity	–
β-hCG peptide 7-40: β-hCG peptide of amino acids 7-40 (PRCRPINATLAVEKEGCPVCITVNTTICAGYCPT; UniProt P0DN86 27-60, looked up, fragment)	little or no inhibition	–	–
β-hCG peptide 34-49: β-hCG peptide of amino acids 34-49 (CAGYCPTMTRVLQGVL; UniProt P0DN86 54-69, looked up, fragment)	little or no inhibition	inactive	–
β-hCG peptide 38-57: β-hCG peptide of amino acids 38-57, overlaps satellin A1 (CPTMTRVLQGVLPALPQVVC; UniProt P0DN86 58-77, looked up, fragment)	little or no inhibition	slight activity	–
β-hCG peptide 55-90: β-hCG peptide 55-90, forms part of the β-core (VVCNYRDVRFESIRLPGCPRGVNPVVSYAVALSCQC; UniProt P0DN86 75-110, looked up, fragment)	–	slight activity	–
β-hCG peptide 57-93: β-hCG peptide of amino acids 57-93 (CNYRDVRFESIRLPGCPRGVNPVVSYAVALSCQCALC; UniProt P0DN86 77-113, looked up, fragment)	little or no inhibition	inactive	–
β-hCG peptide 74-95: β-hCG peptide of amino acids 74-95 (RGVNPVVSYAVALSCQCALCRR; UniProt P0DN86 94-115, looked up, fragment)	little or no inhibition	inactive	–
β-hCG peptide 93-100: β-hCG peptide of amino acids 93-100 (CRRSTTDC; UniProt P0DN86 113-120, looked up, fragment)	–	inactive	–
β-hCG peptide 100-110: β-hCG peptide of amino acids 100-110 (CGGPKDHPLTC; UniProt P0DN86 120-130, looked up, fragment)	little or no inhibition	inactive	–
β-hCG peptide 109-119: synthetic peptide of amino acid numbers 109-119 of the beta subunit of hCG (TCDDPRFQDSS)	–	–	anti-tumor (anti-KS) effects in clonogenic assays (KS Y-1 or KS-SLK cells; 50 nmoles/ml, 2 KS neoplastic cell lines, 10 days): strongest anti-tumor effects; anti-viral effects (HIV): strongest anti-viral effects; activities of native hCG preparations (anti-KS, anti-viral, pro-hematopoietic) mimicked or retained (KS tumors and cells): mimicked; anti-KS effects (KS tumors and cells): have anti-KS effects
B1	–	–	anti-KS effect in clonogenic assays (KS Y-1 or KS-SLK cells; pure subunit chains): no anti-KS effect
B2	–	–	anti-KS effects (KS tumors and cells): little or no effect
B3	–	–	anti-KS effects (KS tumors and cells): have anti-KS effects; anti-KS effects (KS tumors and cells; listed as native partially purified whole β-chain): considerable anti-KS activity
